Data: patent publication US12544463B2, “Deuterium substituted positron emission tomography (PET) imaging agents and their pharmacological application” (Five Eleven Pharma Inc., priority 2017, dated 2026)
Where “and” joins values, the source holds several entries; their conditions need not be identical. Identical values can stand only once.

Assays:
VMAT2 = target: T1, VMAT2 (Rattus norvegicus, UniProt Q01827); test: Regional brain distribution and ratio vs cerebellum in rats (VMAT2 tracers); format: in vivo; details: IV
T1 construct: from tissue; host or cells: live rats (normal male CD rats), dissected brain regions
Experimental: (§1) Three rats per group were used for each biodistribution study. While under isoflurane anesthesia, 0.2 mL of a saline solution containing 20 μCi of radioactive tracer was injected into the femoral vein. The rats were sacrificed at the time indicated by cardiac excision while under isoflurane anesthesia. Organs of interest were removed and weighed, and the radioactivity was counted. The percent dose per organ was calculated by comparing the tissue counts to counts of 1% of the initial dose (100 times diluted aliquots of the injected material) measured at the same time. Regional brain distribution in rats was measured after an iv injection of the radioactive tracer. Samples from different brain regions (cortex, striatum, hippocampus, cerebellum and hypothalamus) were dissected, weighed and counted. The percentage dose/g of each sample was calculated by comparing sample counts with the counts of the diluted initial dose described above. The ratio was calculated by dividing the percentage dose/g of each region by that of the cerebellum. The cerebellum was used as the reference region for calculating the ratio of target to non-target binding, because only a trace amount of VMAT2 binding site is present in the cerebellum.

[1] = Biodistribution in rats: ^18F-FP-(+)DTBZ vs ^18F-FP-DTBZ-D6; format: in vivo, rat; details: for Biodistribution Blood / Biodistribution Bone / Biodistribution Brain / Biodistribution Heart / Biodistribution Kidney / Biodistribution Liver / Biodistribution Lung / Biodistribution Muscle / Biodistribution Pancreas / Biodistribution Skin / Biodistribution Spleen: IV
Experimental: as §1

[2] = 60 min, listed as 18F-FP-DTBZ-D6 (^18F-Ia)
[3] = 120 min, listed as 18F-FP-DTBZ-D6 (^18F-Ia)

T1 sequence (Q01827 whole entry): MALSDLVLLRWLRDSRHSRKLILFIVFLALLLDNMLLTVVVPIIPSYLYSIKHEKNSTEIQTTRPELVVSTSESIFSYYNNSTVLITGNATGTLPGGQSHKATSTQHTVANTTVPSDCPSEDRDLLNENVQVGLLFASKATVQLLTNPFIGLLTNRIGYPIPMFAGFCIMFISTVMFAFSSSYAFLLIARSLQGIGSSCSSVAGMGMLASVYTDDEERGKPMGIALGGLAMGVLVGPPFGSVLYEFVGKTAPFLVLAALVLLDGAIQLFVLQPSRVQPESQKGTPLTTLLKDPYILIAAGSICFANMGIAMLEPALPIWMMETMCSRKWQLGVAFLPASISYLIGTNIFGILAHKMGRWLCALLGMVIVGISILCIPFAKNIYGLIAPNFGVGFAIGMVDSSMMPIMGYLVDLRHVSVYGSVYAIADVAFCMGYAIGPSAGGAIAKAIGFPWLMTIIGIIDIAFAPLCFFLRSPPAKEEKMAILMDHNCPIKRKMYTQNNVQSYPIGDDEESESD

SMILES: COc1cc2c(cc1OCCC[18F])CCN1C[C@@H](CC(C)C)[C@H](O)C[C@H]21 [^18F-FP-(+)DTBZ, reference compound]
- Ratio vs. Cerebellum: Cerebellum (VMAT2; 2 min): 1.00 ± 0.00
- Ratio vs. Cerebellum: Cortex (VMAT2; 2 min): 1.21 ± 0.04
- Ratio vs. Cerebellum: Hippocampus (VMAT2; 2 min): 1.19 ± 0.03
- Ratio vs. Cerebellum: Hypothalamus (VMAT2; 2 min): 1.57 ± 0.04
- Ratio vs. Cerebellum: Remainder (VMAT2; 2 min): 1.23 ± 0.03
- Ratio vs. Cerebellum: Striatum (VMAT2; 2 min): 1.66 ± 0.15
- Regional Brain Distribution Cerebellum (VMAT2; 2 min): 0.68 ± 0.06 % dose/gram
- Regional Brain Distribution Cortex (VMAT2; 2 min): 0.82 ± 0.07 % dose/gram
- Regional Brain Distribution Hippocampus (VMAT2; 2 min): 0.80 ± 0.07 % dose/gram
- Regional Brain Distribution Hypothalamus (VMAT2; 2 min): 1.06 ± 0.10 % dose/gram
- Regional Brain Distribution Remainder (VMAT2; 2 min): 0.83 ± 0.06 % dose/gram
- Regional Brain Distribution Striatum (VMAT2; 2 min): 1.12 ± 0.04 % dose/gram
- Ratio vs. Cerebellum: Cerebellum (VMAT2; 60 min): 1.00 ± 0.00
- Ratio vs. Cerebellum: Cortex (VMAT2; 60 min): 1.13 ± 0.09
- Ratio vs. Cerebellum: Hippocampus (VMAT2; 60 min): 1.64 ± 0.19
- Ratio vs. Cerebellum: Hypothalamus (VMAT2; 60 min): 3.91 ± 0.37
- Ratio vs. Cerebellum: Remainder (VMAT2; 60 min): 1.68 ± 0.07
- Ratio vs. Cerebellum: Striatum (VMAT2; 60 min): 5.66 and 5.66 ± 0.72
- Regional Brain Distribution Cerebellum (VMAT2; 60 min): 0.19 ± 0.02 % dose/gram
- Regional Brain Distribution Cortex (VMAT2; 60 min): 0.21 ± 0.01 % dose/gram
- Regional Brain Distribution Hippocampus (VMAT2; 60 min): 0.30 ± 0.01 % dose/gram
- Regional Brain Distribution Hypothalamus (VMAT2; 60 min): 0.73 ± 0.11 % dose/gram
- Regional Brain Distribution Remainder (VMAT2; 60 min): 0.31 ± 0.02 % dose/gram
- Regional Brain Distribution Striatum (VMAT2; 60 min): 1.04 ± 0.05 % dose/gram
- Ratio vs. Cerebellum: Cerebellum (VMAT2; 120 min): 1.00 ± 0.00
- Ratio vs. Cerebellum: Cortex (VMAT2; 120 min): 1.11 ± 0.09
- Ratio vs. Cerebellum: Hippocampus (VMAT2; 120 min): 1.79 ± 0.12
- Ratio vs. Cerebellum: Hypothalamus (VMAT2; 120 min): 4.04 ± 0.66
- Ratio vs. Cerebellum: Remainder (VMAT2; 120 min): 1.59 ± 0.09
- Ratio vs. Cerebellum: Striatum (VMAT2; 120 min): 6.54 ± 0.59
- Regional Brain Distribution Cerebellum (VMAT2; 120 min): 0.13 ± 0.01 % dose/gram
- Regional Brain Distribution Cortex (VMAT2; 120 min): 0.15 ± 0.02 % dose/gram
- Regional Brain Distribution Hippocampus (VMAT2; 120 min): 0.24 ± 0.03 % dose/gram
- Regional Brain Distribution Hypothalamus (VMAT2; 120 min): 0.54 ± 0.11 % dose/gram
- Regional Brain Distribution Remainder (VMAT2; 120 min): 0.21 ± 0.02 % dose/gram
- Regional Brain Distribution Striatum (VMAT2; 120 min): 0.87 ± 0.12 % dose/gram
- Biodistribution Blood ([1]; 2 min): 0.24 ± 0.03 % dose/g
- Biodistribution Bone ([1]; 2 min): 0.45 ± 0.03 % dose/g
- Biodistribution Brain ([1]; 2 min): 0.83 ± 0.06 % dose/g
- Biodistribution Heart ([1]; 2 min): 0.96 ± 0.08 % dose/g
- Biodistribution Kidney ([1]; 2 min): 2.66 ± 0.15 % dose/g
- Biodistribution Liver ([1]; 2 min): 2.28 ± 0.04 % dose/g
- Biodistribution Lung ([1]; 2 min): 1.03 ± 0.03 % dose/g
- Biodistribution Muscle ([1]; 2 min): 0.11 ± 0.02 % dose/g
- Biodistribution Pancreas ([1]; 2 min): 2.29 ± 0.36 % dose/g
- Biodistribution Skin ([1]; 2 min): 0.19 ± 0.03 % dose/g
- Biodistribution Spleen ([1]; 2 min): 1.19 ± 0.10 % dose/g
- Biodistribution Blood ([1]; 60 min): 0.12 ± 0.00 % dose/g
- Biodistribution Bone ([1]; 60 min): 1.13 ± 0.07 % dose/g
- Biodistribution Brain ([1]; 60 min): 0.35 ± 0.03 % dose/g
- Biodistribution Heart ([1]; 60 min): 0.22 ± 0.03 % dose/g
- Biodistribution Kidney ([1]; 60 min): 0.63 ± 0.05 % dose/g
- Biodistribution Liver ([1]; 60 min): 2.59 ± 0.21 % dose/g
- Biodistribution Lung ([1]; 60 min): 0.41 ± 0.03 % dose/g
- Biodistribution Muscle ([1]; 60 min): 0.10 ± 0.01 % dose/g
- Biodistribution Pancreas ([1]; 60 min): 4.48 ± 0.27 % dose/g
- Biodistribution Skin ([1]; 60 min): 0.24 ± 0.03 % dose/g
- Biodistribution Spleen ([1]; 60 min): 0.50 ± 0.04 % dose/g
- Biodistribution Blood ([1]; 120 min): 0.07 ± 0.01 % dose/g
- Biodistribution Bone ([1]; 120 min): 1.86 % dose/g and 1.86 ± 0.24 % dose/g
- Biodistribution Brain ([1]; 120 min): 0.26 % dose/g and 0.26 ± 0.03 % dose/g
- Biodistribution Heart ([1]; 120 min): 0.16 ± 0.01 % dose/g
- Biodistribution Kidney ([1]; 120 min): 0.45 ± 0.02 % dose/g
- Biodistribution Liver ([1]; 120 min): 2.12 ± 0.20 % dose/g
- Biodistribution Lung ([1]; 120 min): 0.31 ± 0.02 % dose/g
- Biodistribution Muscle ([1]; 120 min): 0.07 ± 0.00 % dose/g
- Biodistribution Pancreas ([1]; 120 min): 3.56 ± 0.42 % dose/g
- Biodistribution Skin ([1]; 120 min): 0.17 ± 0.01 % dose/g
- Biodistribution Spleen ([1]; 120 min): 0.37 ± 0.05 % dose/g

SMILES: [2H]C([2H])([18F])C([2H])([2H])C([2H])([2H])Oc1cc2c(cc1OC)[C@H]1C[C@@H](O)[C@H](CC(C)C)CN1CC2 [^18F-FP-(+)DTBZ-D6 (^18F-Ia)]
- Ratio vs. Cerebellum: Cerebellum (VMAT2; 2 min): 1.00 ± 0.00
- Ratio vs. Cerebellum: Cortex (VMAT2; 2 min): 1.36 ± 0.05
- Ratio vs. Cerebellum: Hippocampus (VMAT2; 2 min): 1.26 ± 0.04
- Ratio vs. Cerebellum: Hypothalamus (VMAT2; 2 min): 1.71 ± 0.10
- Ratio vs. Cerebellum: Remainder (VMAT2; 2 min): 1.33 ± 0.03
- Ratio vs. Cerebellum: Striatum (VMAT2; 2 min): 2.08 ± 0.30
- Regional Brain Distribution Cerebellum (VMAT2; 2 min): 0.48 ± 0.04 % dose/gram
- Regional Brain Distribution Cortex (VMAT2; 2 min): 0.65 ± 0.07 % dose/gram
- Regional Brain Distribution Hippocampus (VMAT2; 2 min): 0.60 ± 0.07 % dose/gram
- Regional Brain Distribution Hypothalamus (VMAT2; 2 min): 0.82 ± 0.10 % dose/gram
- Regional Brain Distribution Remainder (VMAT2; 2 min): 0.64 ± 0.07 % dose/gram
- Regional Brain Distribution Striatum (VMAT2; 2 min): 1.00 ± 0.22 % dose/gram
- Ratio vs. Cerebellum: Cerebellum (VMAT2; 60 min): 1.00 ± 0.00
- Ratio vs. Cerebellum: Cortex (VMAT2; 60 min): 1.13 ± 0.02
- Ratio vs. Cerebellum: Hippocampus (VMAT2; 60 min): 1.68 ± 0.12
- Ratio vs. Cerebellum: Hypothalamus (VMAT2; 60 min): 3.93 ± 0.15
- Ratio vs. Cerebellum: Remainder (VMAT2; 60 min): 1.59 ± 0.04
- Ratio vs. Cerebellum: Striatum (VMAT2; 60 min): 6.05 ± 0.43
- Regional Brain Distribution Cerebellum (VMAT2; 60 min): 0.23 ± 0.01 % dose/gram
- Regional Brain Distribution Cortex (VMAT2; 60 min): 0.26 ± 0.01 % dose/gram
- Regional Brain Distribution Hippocampus (VMAT2; 60 min): 0.39 ± 0.01 % dose/gram
- Regional Brain Distribution Hypothalamus (VMAT2; 60 min): 0.91 ± 0.03 % dose/gram
- Regional Brain Distribution Remainder (VMAT2; 60 min): 0.37 ± 0.02 % dose/gram
- Regional Brain Distribution Striatum (VMAT2; 60 min): 1.40 ± 0.06 % dose/gram
- Ratio vs. Cerebellum: Striatum (VMAT2; [2]): 6.05
- Ratio vs. Cerebellum: Cerebellum (VMAT2; 120 min): 1.00 ± 0.00
- Ratio vs. Cerebellum: Cortex (VMAT2; 120 min): 1.10 ± 0.09
- Ratio vs. Cerebellum: Hippocampus (VMAT2; 120 min): 1.74 ± 0.32
- Ratio vs. Cerebellum: Hypothalamus (VMAT2; 120 min): 3.56 ± 0.49
- Ratio vs. Cerebellum: Remainder (VMAT2; 120 min): 1.52 ± 0.03
- Ratio vs. Cerebellum: Striatum (VMAT2; 120 min): 5.49 ± 0.43
- Regional Brain Distribution Cerebellum (VMAT2; 120 min): 0.18 ± 0.01 % dose/gram
- Regional Brain Distribution Cortex (VMAT2; 120 min): 0.20 ± 0.00 % dose/gram
- Regional Brain Distribution Hippocampus (VMAT2; 120 min): 0.31 ± 0.04 % dose/gram
- Regional Brain Distribution Hypothalamus (VMAT2; 120 min): 0.65 ± 0.11 % dose/gram
- Regional Brain Distribution Remainder (VMAT2; 120 min): 0.28 ± 0.02 % dose/gram
- Regional Brain Distribution Striatum (VMAT2; 120 min): 1.00 ± 0.08 % dose/gram
- increase in total brain uptake vs ^18F-FP-(+)DTBZ ([1]; 120 min after iv injection): 40%
- Biodistribution Blood ([1]; 2 min): 0.23 ± 0.03 % dose/g
- Biodistribution Bone ([1]; 2 min): 0.33 ± 0.04 % dose/g
- Biodistribution Brain ([1]; 2 min): 0.64 ± 0.07 % dose/g
- Biodistribution Heart ([1]; 2 min): 0.69 ± 0.12 % dose/g
- Biodistribution Kidney ([1]; 2 min): 1.89 ± 0.07 % dose/g
- Biodistribution Liver ([1]; 2 min): 2.79 ± 0.12 % dose/g
- Biodistribution Lung ([1]; 2 min): 0.87 ± 0.05 % dose/g
- Biodistribution Muscle ([1]; 2 min): 0.17 ± 0.02 % dose/g
- Biodistribution Pancreas ([1]; 2 min): 2.62 ± 0.15 % dose/g
- Biodistribution Skin ([1]; 2 min): 0.24 ± 0.02 % dose/g
- Biodistribution Spleen ([1]; 2 min): 1.04 ± 0.10 % dose/g
- Biodistribution Blood ([1]; 60 min): 0.11 ± 0.01 % dose/g
- Biodistribution Bone ([1]; 60 min): 0.47 ± 0.02 % dose/g
- Biodistribution Brain ([1]; 60 min): 0.44 ± 0.02 % dose/g
- Biodistribution Heart ([1]; 60 min): 0.26 ± 0.01 % dose/g
- Biodistribution Kidney ([1]; 60 min): 0.66 ± 0.04 % dose/g
- Biodistribution Liver ([1]; 60 min): 3.19 ± 0.46 % dose/g
- Biodistribution Lung ([1]; 60 min): 0.49 ± 0.00 % dose/g
- Biodistribution Muscle ([1]; 60 min): 0.11 ± 0.00 % dose/g
- Biodistribution Pancreas ([1]; 60 min): 5.01 ± 0.69 % dose/g
- Biodistribution Skin ([1]; 60 min): 0.25 ± 0.01 % dose/g
- Biodistribution Spleen ([1]; 60 min): 0.66 ± 0.03 % dose/g
- Biodistribution Bone [1, 2]: 0.47 % dose/g
- Biodistribution Blood ([1]; 120 min): 0.10 ± 0.00 % dose/g
- Biodistribution Bone ([1]; 120 min): 0.65 ± 0.03 % dose/g
- Biodistribution Brain ([1]; 120 min): 0.34 ± 0.02 % dose/g
- Biodistribution Heart ([1]; 120 min): 0.21 ± 0.01 % dose/g
- Biodistribution Kidney ([1]; 120 min): 0.59 ± 0.02 % dose/g
- Biodistribution Liver ([1]; 120 min): 3.10 ± 0.49 % dose/g
- Biodistribution Lung ([1]; 120 min): 0.41 ± 0.01 % dose/g
- Biodistribution Muscle ([1]; 120 min): 0.09 ± 0.01 % dose/g
- Biodistribution Pancreas ([1]; 120 min): 4.49 ± 0.17 % dose/g
- Biodistribution Skin ([1]; 120 min): 0.21 ± 0.01 % dose/g
- Biodistribution Spleen ([1]; 120 min): 0.51 ± 0.03 % dose/g
- Biodistribution Bone [1, 3]: 0.65 % dose/g
- Biodistribution Brain [1, 3]: 0.34 % dose/g
